Assays:
Memory B cells = test: MAGNIFY-MS peripheral blood immunophenotyping (flow cytometry); type: in vivo, human; settings: month 1-12
plasmablast/cells = test: Sustained decrease of plasmablast/cells under Cladribine treatment; type: in vivo, human; settings: month 3-12
From the text: According to the instant invention, it is preferably shown that treatment of said autoimmune diseases with DMDs, preferably the treatment of MS with said DMDs and especially treatment of MS with Cladribine, in an individual induces a sustained decrease of pathological memory B cells and plasmablast/cells (>−70% and >−50% from baseline respectively) from month 1-12 and month 3-12 respectively. Repopulation of these cells resulting in a increase of numbers of memory B cells and Plasma cells to <−40% and −20% respectively will illustrate a loss of efficacy serving as a retreatment marker.

plasma cells signatures = test: Immune deconvolution signatures, CLARITY phase 3, 96 weeks; type: in vivo, human; settings: 96 weeks after first cladribine treatment
From the text: Plasma cell signatures have weak positive, but significant, correlation with: MACT2 (Mean Active T2 Lesions), CACT2 (Cumulative Active T2 lesions), MRCULES (Mean CU Lesions), MNT1GEL (Mean New T1 Gd+ Lesions). The results are illustrated in FIG. 9.

[1] = test system: plasma cell numbers in the blood; test: Plasma cell response in MS patients vaccinated with Shingrix before cladribine treatment; type: in vivo, human; settings: MS patients vaccinated twice with Shingrix, second dose 1 week before start of cladribine
From the text: According to the instant invention, it is preferably shown that treatment of treatment of MS with Cladribine, in an individual, reduces short lived plasmablasts and CD38^+ plasma cells and the direct effect on these plasma cell subpopulations is further supported by blood data from MS patients vaccinated twice with the Shingrix vaccine before the start of treatment with the DMD Cladribine. After the second Shingrix dose given 1 week before said start of cladribine treatment, the patient raised an acute plasma cell response, and increased plasma cell numbers in the blood to the MS patient were reduced by cladribine treatment (cite vaccination patent). These findings indicate that Cladribine is able to directly affect and reduce plasmablasts and CD38+ plasma cells which are associated with disease pathology by means of autoantibody production and direct cellular toxicity, especially when occurring within the cerebrospinal fluid. What we found in MS is also important for other diseases. There are a variety of AI & Neuroinflammatory diseases where potentially plasma cells/plasmablasts are involved in the disease activity and disease course which we deem to benefit from a treatment directly acting on plasma cells, preferably cladribine treatment. […]

[2] = CLARITY extension, five patient groups, 3.5 mg/kg or placebo after CLARITY; cited from earlier work
B cell = settings: followed by a period of repopulation (Wiendl et al., 2020); cited from earlier work
CD4^+ T cell = settings: followed by a period of repopulation (Wiendl et al., 2020); cited from earlier work
CD8^+ T cell = settings: followed by a period of repopulation (Wiendl et al., 2020); cited from earlier work
CD27+ memory B cells = settings: those with NMOSDs; cited from earlier work
CD24hiCD38hi TrB cells = settings: those with NMOSDs; cited from earlier work
CD19^+ cell = settings: Montalban et al., 2016; cited from earlier work

## Nc1nc(Cl)nc2c1ncn2[C@H]1C[C@H](O)[C@@H](CO)O1 [Cladribine]
Memory B cells
  Sustained decrease of pathological memory B cells from baseline: > −70%
plasmablast/cells
  Sustained decrease of plasmablast/cells from baseline: > −50%
Plasma cells signatures
  Ratio in plasma cells signatures vs untreated control: decreased ratio
[1]
  Increased plasma cell numbers in the blood after second Shingrix dose: reduced
[2]
  Relapse rates and disability between all groups: not significantly different

## Alemtuzumab: other disease-modifying therapy compared in the discussion
B cell
  B cell counts: decrease
CD4^+ T cell
  CD4^+ T cell counts: decrease
CD8^+ T cell
  CD8^+ T cell counts: decrease

## Rituximab: anti-CD20 therapy targeting B cells
CD27+ memory B cells
  number of CD27+ memory B cells: lowered
CD24hiCD38hi TrB cells
  number of CD24hiCD38hi TrB cells: increased

## ocrelizumab: anti-CD20 therapy targeting B cells
CD19^+ cell
  Time of reductions in CD19^+ cell counts after treatment (as early as): 2 weeks

Source: patent US20240077481A1, “IMPROVED TREATMENT METHODS USING DMDS FOR THE TREATMENT OF AUTOIMMUNE DISEASES, AND BIOMARKER FOR PREDICTING AND/OR OPTIMISING SAID TREATMENT METHODS” (ARES TRADING S.A., priority 2021, published 2024)
